Measured values taken from PMC2551328 (Biochemistry, 2008).

What was measured:
Type in all cases: biochemical
M.tb PGDH G317V = M.tb PGDH G317V (Mycobacterium tuberculosis, UniProt P9WNX3, G316V)
M.tb PGDH G316V = M.tb PGDH G316V (Mycobacterium tuberculosis, UniProt P9WNX3, G315V)
M.tb PGDH Y461A = M.tb PGDH Y461A (Mycobacterium tuberculosis, UniProt P9WNX3, Y460A)
M.tb PGDH G318V = M.tb PGDH G318V (Mycobacterium tuberculosis, UniProt P9WNX3, G317V)
M.tb PGDH G316, 317V = M.tb PGDH G316, 317V (Mycobacterium tuberculosis, UniProt P9WNX3, G315V/G316V)
M.tb PGDH G316, 318V = M.tb PGDH G316, 318V (Mycobacterium tuberculosis, UniProt P9WNX3, G315V/G317V)
M.tb PGDH G317, 318V = M.tb PGDH G317, 318V (Mycobacterium tuberculosis, UniProt P9WNX3, G316V/G317V)
M.tb PGDH D463A = M.tb PGDH D463A (Mycobacterium tuberculosis, UniProt P9WNX3, D462A)
M.tb PGDH N481A = M.tb PGDH N481A (Mycobacterium tuberculosis, UniProt P9WNX3, N480A)

**Q.** How did the “Hill Coefficient” value (M.tb PGDH G317V) turn out when `N[C@@H](CO)C(=O)O` [L-serine, reference compound] was run?
**A.** 1.5 ± 0.1

**Q.** What about the “Hill Coefficient” value (M.tb PGDH G316V) of the same molecule?
**A.** 1.6 ± 0.1

**Q.** What about the “Hill Coefficient” value (M.tb PGDH Y461A) of the same molecule?
**A.** 1.7 ± 0.1

**Q.** What about the “Hill Coefficient” value (M.tb PGDH G318V) of the same molecule?
**A.** 2.5 ± 0.1

**Q.** What about the “decrease in sensitivity to serine” value (M.tb PGDH G318V) of the same molecule?
**A.** about 5 fold

**Q.** What about the “Hill Coefficient” value (M.tb PGDH G316, 317V) of the same molecule?
**A.** 1.7 ± 0.1

**Q.** And the “Hill Coefficient” value (M.tb PGDH G316, 318V)?
**A.** 1.9 ± 0.1

**Q.** And the “Hill Coefficient” value (M.tb PGDH G317, 318V)?
**A.** 1.9 ± 0.1

**Q.** And the “Hill Coefficient” value (M.tb PGDH D463A)?
**A.** 1.4 ± 0.1

**Q.** With `O=C(O)C(=O)COP(=O)(O)O` [HPAP, hydroxypyruvic acid phosphate] as the molecule, how does the Ki (M.tb PGDH G317V) read?
**A.** 1110 ± 148 µM

**Q.** And the Km (M.tb PGDH G317V)?
**A.** 165 ± 9 µM

**Q.** And the kcat (M.tb PGDH G317V)?
**A.** 2111 ± 119 s⁻¹

**Q.** What about the Ki (M.tb PGDH G316V) of the same molecule?
**A.** 2230 ± 190 µM

**Q.** And the Km (M.tb PGDH G316V)?
**A.** 114 ± 4 µM

**Q.** What about the kcat (M.tb PGDH G316V) of the same molecule?
**A.** 1111 ± 30 s⁻¹

**Q.** And the Ki (M.tb PGDH Y461A)?
**A.** 420 ± 65 µM

**Q.** And the Km (M.tb PGDH Y461A)?
**A.** 270 ± 60 µM

**Q.** And the kcat (M.tb PGDH Y461A)?
**A.** 2754 ± 300 s⁻¹

**Q.** And the Ki (M.tb PGDH G318V)?
**A.** 1920 ± 437 µM

**Q.** And the Km (M.tb PGDH G318V)?
**A.** 203 ± 23 µM

**Q.** And the kcat (M.tb PGDH G318V)?
**A.** 2349 ± 177 s⁻¹

**Q.** And the Ki (M.tb PGDH G316, 317V)?
**A.** 380 ± 45 µM

**Q.** What about the Km (M.tb PGDH G316, 317V) of the same molecule?
**A.** 610 ± 95 µM

**Q.** And the kcat (M.tb PGDH G316, 317V)?
**A.** 2805 ± 310 s⁻¹

**Q.** What about the Ki (M.tb PGDH G316, 318V) of the same molecule?
**A.** 220 ± 35 µM

**Q.** And the Km (M.tb PGDH G316, 318V)?
**A.** 470 ± 43 µM

**Q.** And the kcat (M.tb PGDH G316, 318V)?
**A.** 2827 ± 197 s⁻¹

**Q.** And the Ki (M.tb PGDH N481A)?
**A.** 2320 ± 337 µM

**Q.** What about the Km (M.tb PGDH N481A) of the same molecule?
**A.** 120 ± 15 µM

**Q.** And the kcat (M.tb PGDH N481A)?
**A.** 603 ± 77 s⁻¹

**Q.** What about the Ki (M.tb PGDH G317, 318V) of the same molecule?
**A.** 1620 ± 402 µM

**Q.** What about the Km (M.tb PGDH G317, 318V) of the same molecule?
**A.** 220 ± 43 µM

**Q.** And the kcat (M.tb PGDH G317, 318V)?
**A.** 605 ± 27 s⁻¹

**Q.** What about the Ki (M.tb PGDH D463A) of the same molecule?
**A.** 1090 ± 165 µM

**Q.** And the Km (M.tb PGDH D463A)?
**A.** 140 ± 10 µM

**Q.** And the kcat (M.tb PGDH D463A)?
**A.** 720 ± 89 s⁻¹
